Reference: ChEMBL document CHEMBL1150629, “Isolation and structure of pedilstatin from a republic of maldives Pedilanthus sp” (J Nat Prod, 2002)
In brackets after ≈: the same amount, converted by molar mass.

Columns and labels:
[1] = tested on: P388; assay: Cytotoxicity against mouse P388 cells; assay type: functional; settings: read-out: ED50 (the source's name)
[2] = tested on: Human immunodeficiency virus 1; assay: Antiviral activity against HIV1 RF in human CEM-SS cells assessed as cell protection from infection after 7 days; assay type: functional, organism-based; settings: Human immunodeficiency virus 1, CEM-SS, 168 h
[3] = tested on: Human immunodeficiency virus 1; assay: Antiviral activity against HIV1 RF in human CEM-SS cells assessed as cell protection from infection at 2 to 5 uM after 7 days relative to control; assay type: functional
[4] = tested on: CEM-SS; assay: Cytotoxicity against human CEM-SS cells assessed as inhibition of cell metabolic activity after 7 days by XTT assay; assay type: functional, cell-based; settings: 168 h
[5] = Inhibition of [20-3H]phorbol 12,13-dibutyrate binding to protein kinase C

- EC50 [2]: 1.03 µM
- Ki [5]: 0.62 µM
SMILES: CCC/C=C/C=C\C(=O)O[C@@H]1[C@@H](C)[C@]2(O)[C@@H]3C=C(C)C(=O)[C@@H]3CC(CO)=C[C@H]2[C@@H]2C(C)(C)[C@]12OC(C)=O [PEDILSTATIN]
- EC50 [1]: 0.28 µg/mL (≈ 0.546 µM)
- Activity [3]: 80%
- IC50 [4]: 13.3 µM
